Measured values taken from ChEMBL document CHEMBL4507272 (2021).

How the values were obtained:
[1] = tested on: Epidermal growth factor receptor (Homo sapiens), P00533 [G719C]; details: Compound concentration 1000.0 nM
[2] = target: Leucine-rich repeat serine/threonine-protein kinase 2 (Homo sapiens) (UniProt Q5S007); details: Compound concentration 1000.0 nM
[3] = target: Calcium/calmodulin-dependent protein kinase type 1D (Homo sapiens) (UniProt Q8IU85); details: Compound concentration 1000.0 nM
[4] = target: Serine/threonine-protein kinase/endoribonuclease IRE1 (Homo sapiens) (UniProt O75460); details: Compound concentration 1000.0 nM
[5] = target: Tyrosine-protein kinase Mer (Homo sapiens) (UniProt Q12866); details: Compound concentration 1000.0 nM
[6] = target: Serine/threonine-protein kinase DCLK1 (Homo sapiens) (UniProt O15075); details: Compound concentration 1000.0 nM
[7] = target: Mitogen-activated protein kinase kinase kinase 3 (Homo sapiens) (UniProt Q99759); details: Compound concentration 1000.0 nM
[8] = target: Non-receptor tyrosine-protein kinase TNK1 (Homo sapiens) (UniProt Q13470); details: Compound concentration 1000.0 nM
[9] = target: Serine/threonine-protein kinase 25 (Homo sapiens) (UniProt O00506); details: Compound concentration 1000.0 nM
[10] = target: Serine/threonine-protein kinase B-raf (Homo sapiens) (UniProt P15056); details: Compound concentration 1000.0 nM
[11] = target: Dual specificity tyrosine-phosphorylation-regulated kinase 1A (Homo sapiens) (UniProt Q13627); details: Compound concentration 1000.0 nM
[12] = target: Mitogen-activated protein kinase kinase kinase kinase 3 (Homo sapiens) (UniProt Q8IVH8); details: Compound concentration 1000.0 nM
[13] = target: Cyclin-dependent kinase-like 5 (Homo sapiens) (UniProt O76039); details: Compound concentration 1000.0 nM
[14] = target: Mitogen-activated protein kinase kinase kinase kinase 2 (Homo sapiens) (UniProt Q12851); details: Compound concentration 1000.0 nM
[15] = tested on: Mast/stem cell growth factor receptor Kit (Homo sapiens), P10721 [A829P]; details: Compound concentration 1000.0 nM
[16] = target: MAP kinase-activated protein kinase 2 (Homo sapiens) (UniProt P49137); details: Compound concentration 1000.0 nM
[17] = target: Tyrosine-protein kinase JAK3 (Homo sapiens) (UniProt P52333); details: Compound concentration 1000.0 nM
[18] = target: cAMP-dependent protein kinase catalytic subunit PRKX (Homo sapiens) (UniProt P51817); details: Compound concentration 1000.0 nM
[19] = target: Epidermal growth factor receptor (Homo sapiens) (UniProt P00533); details: Compound concentration 1000.0 nM
[20] = target: Activated CDC42 kinase 1 (Homo sapiens) (UniProt Q07912); details: Compound concentration 1000.0 nM
[21] = target: Vascular endothelial growth factor receptor 3 (Homo sapiens) (UniProt P35916); details: Compound concentration 1000.0 nM
[22] = target: Serine/threonine-protein kinase 35 (Homo sapiens) (UniProt Q8TDR2); details: Compound concentration 1000.0 nM
[23] = target: 5-hydroxytryptamine receptor 1E (Homo sapiens) (UniProt P28566); details: Compound concentration 10.0 uM
[24] = target: Casein kinase I isoform delta (Homo sapiens) (UniProt P48730); details: Compound concentration 1000.0 nM
[25] = target: Casein kinase II subunit alpha (Homo sapiens) (UniProt P68400); details: Compound concentration 1000.0 nM
[26] = target: Dual serine/threonine and tyrosine protein kinase (Homo sapiens) (UniProt Q6XUX3); details: Compound concentration 1000.0 nM
[27] = tested on: Epidermal growth factor receptor (Homo sapiens), P00533 [UNDEFINED MUTATION]; details: Compound concentration 1000.0 nM
[28] = target: MAP kinase-activated protein kinase 5 (Homo sapiens) (UniProt Q8IW41); details: Compound concentration 1000.0 nM
[29] = target: Wee1-like protein kinase 2 (Homo sapiens) (UniProt P0C1S8); details: Compound concentration 1000.0 nM
[30] = target: Mitogen-activated protein kinase 3 (Homo sapiens) (UniProt P27361); details: Compound concentration 1000.0 nM
[31] = target: G protein-coupled receptor kinase 4 (Homo sapiens) (UniProt P32298); details: Compound concentration 1000.0 nM
[32] = target: Activin receptor type-2B (Homo sapiens) (UniProt Q13705); details: Compound concentration 1000.0 nM
[33] = target: Serine/threonine-protein kinase WNK4 (Homo sapiens) (UniProt Q96J92); details: Compound concentration 1000.0 nM
[34] = target: Serine/threonine-protein kinase pim-1 (Homo sapiens) (UniProt P11309); details: Compound concentration 1000.0 nM
[35] = target: Mitogen-activated protein kinase kinase kinase 19 (Homo sapiens) (UniProt Q56UN5); details: Compound concentration 1000.0 nM
[36] = target: Inhibitor of nuclear factor kappa-B kinase subunit alpha (Homo sapiens) (UniProt O15111); details: Compound concentration 1000.0 nM
[37] = target: Tyrosine-protein kinase Blk (Homo sapiens) (UniProt P51451); details: Compound concentration 1000.0 nM
[38] = tested on: Fibroblast growth factor receptor 3 (Homo sapiens), P22607 [G697C]; details: Compound concentration 1000.0 nM
[39] = tested on: Mast/stem cell growth factor receptor Kit (Homo sapiens), P10721 [D816H]; details: Compound concentration 1000.0 nM
[40] = target: Serine/threonine-protein kinase LATS1 (Homo sapiens) (UniProt O95835); details: Compound concentration 1000.0 nM
[41] = target: Serine/threonine-protein kinase 32B (Homo sapiens) (UniProt Q9NY57); details: Compound concentration 1000.0 nM
[42] = target: Phosphatidylinositol 3-kinase C2 domain-containing subunit gamma (Homo sapiens) (UniProt O75747); details: Compound concentration 1000.0 nM
[43] = target: Dual specificity tyrosine-phosphorylation-regulated kinase 2 (Homo sapiens) (UniProt Q92630); details: Compound concentration 1000.0 nM
[44] = target: Non-receptor tyrosine-protein kinase TYK2 (Homo sapiens) (UniProt P29597); details: Compound concentration 1000.0 nM
[45] = target: Eukaryotic translation initiation factor 2-alpha kinase 1 (Homo sapiens) (UniProt Q9BQI3); details: Compound concentration 1000.0 nM

Mast/stem cell growth factor receptor Kit (Homo sapiens), P10721 [A829P], sequence (P10721 whole entry A829P): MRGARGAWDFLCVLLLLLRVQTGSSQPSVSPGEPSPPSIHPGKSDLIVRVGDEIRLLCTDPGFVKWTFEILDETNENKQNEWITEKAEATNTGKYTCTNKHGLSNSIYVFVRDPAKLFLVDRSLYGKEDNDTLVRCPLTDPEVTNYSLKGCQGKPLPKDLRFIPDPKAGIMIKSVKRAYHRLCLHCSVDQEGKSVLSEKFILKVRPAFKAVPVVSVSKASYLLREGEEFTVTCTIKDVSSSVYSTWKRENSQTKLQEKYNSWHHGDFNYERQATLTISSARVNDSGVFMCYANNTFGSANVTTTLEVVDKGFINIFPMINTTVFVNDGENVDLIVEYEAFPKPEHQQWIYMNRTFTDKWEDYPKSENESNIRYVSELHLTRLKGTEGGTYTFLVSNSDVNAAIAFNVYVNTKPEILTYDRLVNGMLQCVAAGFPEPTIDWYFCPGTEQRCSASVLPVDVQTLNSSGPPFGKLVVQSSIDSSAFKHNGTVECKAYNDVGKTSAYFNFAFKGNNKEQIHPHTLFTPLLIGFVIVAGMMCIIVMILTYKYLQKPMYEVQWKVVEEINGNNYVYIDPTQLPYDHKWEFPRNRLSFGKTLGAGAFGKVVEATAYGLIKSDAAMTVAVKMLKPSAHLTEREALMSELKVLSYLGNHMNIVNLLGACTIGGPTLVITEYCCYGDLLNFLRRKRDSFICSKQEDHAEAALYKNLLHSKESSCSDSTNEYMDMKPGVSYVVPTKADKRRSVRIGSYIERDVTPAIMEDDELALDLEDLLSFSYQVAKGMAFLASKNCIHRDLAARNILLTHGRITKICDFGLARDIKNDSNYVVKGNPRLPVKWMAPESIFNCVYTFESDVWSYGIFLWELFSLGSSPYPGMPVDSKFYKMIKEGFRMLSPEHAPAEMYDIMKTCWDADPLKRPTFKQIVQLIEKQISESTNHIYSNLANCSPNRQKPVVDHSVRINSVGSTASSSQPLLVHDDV
Tyrosine-protein kinase Blk (Homo sapiens), sequence (P51451 2-505 limits assumed): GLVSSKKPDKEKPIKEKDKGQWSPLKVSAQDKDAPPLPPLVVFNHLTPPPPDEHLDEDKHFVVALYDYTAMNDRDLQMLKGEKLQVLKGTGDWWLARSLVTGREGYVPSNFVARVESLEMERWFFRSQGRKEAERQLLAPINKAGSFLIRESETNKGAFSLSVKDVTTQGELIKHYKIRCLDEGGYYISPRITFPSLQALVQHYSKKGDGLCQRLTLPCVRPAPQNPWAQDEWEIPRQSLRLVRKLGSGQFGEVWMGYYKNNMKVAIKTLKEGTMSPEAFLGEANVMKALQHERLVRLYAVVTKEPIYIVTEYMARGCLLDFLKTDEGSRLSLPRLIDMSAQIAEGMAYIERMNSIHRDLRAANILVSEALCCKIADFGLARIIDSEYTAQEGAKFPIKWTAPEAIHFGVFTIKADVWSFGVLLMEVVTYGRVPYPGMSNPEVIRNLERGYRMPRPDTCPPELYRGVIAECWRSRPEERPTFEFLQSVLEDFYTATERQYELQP
Casein kinase I isoform delta (Homo sapiens), sequence (P48730 whole entry, looked up, canonical isoform): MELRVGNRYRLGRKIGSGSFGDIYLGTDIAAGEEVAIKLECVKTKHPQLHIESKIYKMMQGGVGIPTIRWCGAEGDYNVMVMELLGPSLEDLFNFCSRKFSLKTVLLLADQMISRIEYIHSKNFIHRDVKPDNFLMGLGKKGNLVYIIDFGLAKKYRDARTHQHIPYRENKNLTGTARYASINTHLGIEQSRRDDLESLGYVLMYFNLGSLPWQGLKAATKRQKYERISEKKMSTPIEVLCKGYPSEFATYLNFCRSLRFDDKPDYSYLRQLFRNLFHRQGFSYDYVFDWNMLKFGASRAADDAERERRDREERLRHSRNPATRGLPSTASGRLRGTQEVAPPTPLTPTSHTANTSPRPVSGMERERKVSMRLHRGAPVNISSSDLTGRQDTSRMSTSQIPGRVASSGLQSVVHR
Activated CDC42 kinase 1 (Homo sapiens), sequence (Q07912 whole entry, looked up): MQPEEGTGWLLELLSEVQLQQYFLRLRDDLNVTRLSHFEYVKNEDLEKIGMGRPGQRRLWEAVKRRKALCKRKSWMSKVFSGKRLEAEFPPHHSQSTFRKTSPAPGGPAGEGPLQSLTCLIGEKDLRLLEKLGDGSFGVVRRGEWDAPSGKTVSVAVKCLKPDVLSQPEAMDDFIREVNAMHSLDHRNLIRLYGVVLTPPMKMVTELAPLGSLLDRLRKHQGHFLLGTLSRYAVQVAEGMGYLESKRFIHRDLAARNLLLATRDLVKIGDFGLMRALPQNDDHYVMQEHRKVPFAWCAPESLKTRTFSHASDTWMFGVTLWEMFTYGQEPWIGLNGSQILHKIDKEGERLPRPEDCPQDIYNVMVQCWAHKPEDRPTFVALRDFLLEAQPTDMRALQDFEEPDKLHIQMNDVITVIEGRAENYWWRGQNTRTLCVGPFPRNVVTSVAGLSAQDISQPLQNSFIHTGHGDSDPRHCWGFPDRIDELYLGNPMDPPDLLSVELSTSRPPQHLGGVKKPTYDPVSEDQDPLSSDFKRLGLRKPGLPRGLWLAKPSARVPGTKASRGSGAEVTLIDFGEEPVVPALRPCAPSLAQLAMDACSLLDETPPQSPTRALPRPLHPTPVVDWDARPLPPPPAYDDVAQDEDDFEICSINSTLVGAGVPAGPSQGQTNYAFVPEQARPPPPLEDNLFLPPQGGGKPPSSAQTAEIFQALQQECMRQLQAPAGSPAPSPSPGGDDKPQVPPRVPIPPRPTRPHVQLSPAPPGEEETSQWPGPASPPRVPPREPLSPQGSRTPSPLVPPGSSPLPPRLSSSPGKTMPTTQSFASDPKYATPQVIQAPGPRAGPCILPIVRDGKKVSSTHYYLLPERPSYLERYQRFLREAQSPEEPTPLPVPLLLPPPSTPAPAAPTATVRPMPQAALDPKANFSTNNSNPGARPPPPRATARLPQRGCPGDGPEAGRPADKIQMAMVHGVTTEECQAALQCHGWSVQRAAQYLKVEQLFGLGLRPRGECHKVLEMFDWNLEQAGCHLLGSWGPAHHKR
Calcium/calmodulin-dependent protein kinase type 1D (Homo sapiens), sequence (Q8IU85 whole entry, looked up): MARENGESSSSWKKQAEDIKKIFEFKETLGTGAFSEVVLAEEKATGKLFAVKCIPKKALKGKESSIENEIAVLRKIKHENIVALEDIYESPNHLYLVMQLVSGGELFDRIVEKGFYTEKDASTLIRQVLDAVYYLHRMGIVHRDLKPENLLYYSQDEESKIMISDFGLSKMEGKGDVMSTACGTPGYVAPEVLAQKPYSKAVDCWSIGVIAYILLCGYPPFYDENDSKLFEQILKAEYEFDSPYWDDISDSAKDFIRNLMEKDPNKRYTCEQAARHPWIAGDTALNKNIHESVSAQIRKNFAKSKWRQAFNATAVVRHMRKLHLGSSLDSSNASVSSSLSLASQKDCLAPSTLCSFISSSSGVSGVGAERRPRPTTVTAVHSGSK
Mitogen-activated protein kinase kinase kinase 19 (Homo sapiens), sequence (Q56UN5 whole entry): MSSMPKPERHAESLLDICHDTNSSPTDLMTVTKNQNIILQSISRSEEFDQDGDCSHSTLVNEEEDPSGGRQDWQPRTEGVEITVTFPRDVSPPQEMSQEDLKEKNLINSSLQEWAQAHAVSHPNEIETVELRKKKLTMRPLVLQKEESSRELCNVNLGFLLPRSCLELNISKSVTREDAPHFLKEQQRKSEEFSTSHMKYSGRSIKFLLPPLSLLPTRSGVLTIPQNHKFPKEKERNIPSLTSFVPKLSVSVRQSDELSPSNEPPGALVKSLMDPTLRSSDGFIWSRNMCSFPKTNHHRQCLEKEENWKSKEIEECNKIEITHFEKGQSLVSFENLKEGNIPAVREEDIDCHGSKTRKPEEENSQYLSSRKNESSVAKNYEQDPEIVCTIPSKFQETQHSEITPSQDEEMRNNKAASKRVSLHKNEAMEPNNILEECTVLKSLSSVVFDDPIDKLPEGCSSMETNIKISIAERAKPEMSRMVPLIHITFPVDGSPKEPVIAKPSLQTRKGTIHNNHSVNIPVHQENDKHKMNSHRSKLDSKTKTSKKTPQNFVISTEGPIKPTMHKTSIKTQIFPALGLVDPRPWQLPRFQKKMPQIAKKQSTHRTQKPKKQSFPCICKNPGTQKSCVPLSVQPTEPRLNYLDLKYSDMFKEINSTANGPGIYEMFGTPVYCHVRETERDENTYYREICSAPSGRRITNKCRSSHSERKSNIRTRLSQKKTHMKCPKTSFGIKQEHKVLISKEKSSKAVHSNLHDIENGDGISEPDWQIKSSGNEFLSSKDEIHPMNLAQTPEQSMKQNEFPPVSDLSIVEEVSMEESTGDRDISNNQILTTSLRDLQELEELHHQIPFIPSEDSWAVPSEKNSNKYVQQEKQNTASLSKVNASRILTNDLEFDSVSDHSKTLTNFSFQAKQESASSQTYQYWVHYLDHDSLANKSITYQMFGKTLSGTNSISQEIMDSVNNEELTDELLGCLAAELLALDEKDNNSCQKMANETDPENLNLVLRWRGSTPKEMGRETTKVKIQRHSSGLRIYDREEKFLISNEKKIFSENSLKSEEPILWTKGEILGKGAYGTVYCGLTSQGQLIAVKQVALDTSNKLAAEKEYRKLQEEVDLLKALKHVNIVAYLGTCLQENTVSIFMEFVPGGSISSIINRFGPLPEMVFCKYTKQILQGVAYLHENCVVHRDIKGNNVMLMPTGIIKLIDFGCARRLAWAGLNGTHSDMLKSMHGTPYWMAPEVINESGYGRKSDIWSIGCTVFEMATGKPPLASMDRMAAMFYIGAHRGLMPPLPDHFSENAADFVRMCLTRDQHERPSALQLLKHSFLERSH
Serine/threonine-protein kinase 32B (Homo sapiens), sequence (Q9NY57 whole entry, the tested form may be a part): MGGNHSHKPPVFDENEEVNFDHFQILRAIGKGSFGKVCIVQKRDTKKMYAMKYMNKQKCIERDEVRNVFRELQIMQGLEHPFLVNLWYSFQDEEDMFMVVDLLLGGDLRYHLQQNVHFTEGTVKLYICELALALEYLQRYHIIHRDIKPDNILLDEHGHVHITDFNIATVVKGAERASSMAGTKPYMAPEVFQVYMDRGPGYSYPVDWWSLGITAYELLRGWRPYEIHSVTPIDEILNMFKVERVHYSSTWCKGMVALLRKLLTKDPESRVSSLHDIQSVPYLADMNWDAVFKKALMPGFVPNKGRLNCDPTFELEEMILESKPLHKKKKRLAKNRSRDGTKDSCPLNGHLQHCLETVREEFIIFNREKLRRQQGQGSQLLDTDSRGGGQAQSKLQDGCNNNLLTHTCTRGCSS

CC(=O)C1=C(C)N(c2cccc(C(F)(F)F)c2)C(=O)N[C@@H]1c1ccc(C#N)nc1 [BAY-678]
inactive: residual activity [1] 100% | residual activity [2] 80.7% | residual activity [3] 79.4% | residual activity [4] 100% | residual activity [5] 100% | residual activity [6] 85.1% | residual activity [7] 100% | residual activity [8] 62.1% | residual activity [9] 89.9% | residual activity [10] 78.5% | residual activity [11] 100% | residual activity [12] 83.5% | residual activity [13] 100% | residual activity [14] 100% | residual activity [15] 80.8% | residual activity [16] 82.6% | residual activity [17] 70.5% | residual activity [18] 100% | residual activity [19] 78.2% | residual activity [20] 78.6% | residual activity [21] 100% | residual activity [22] 85.9% | inhibition [23] 7.74% | residual activity [24] 100% | residual activity [25] 94.8% | residual activity [26] 76.9% | residual activity [27] 92.9% | residual activity [28] 100% | residual activity [29] 100% | residual activity [30] 97.1% | residual activity [31] 100% | residual activity [32] 87.5% | residual activity [33] 100% | residual activity [34] 100% | residual activity [35] 93% | residual activity [36] 100% | residual activity [37] 95.8% | residual activity [38] 100% | residual activity [39] 100% | residual activity [40] 67.1% | residual activity [41] 100% | residual activity [42] 78.2% | residual activity [43] 100% | residual activity [44] 91.3% | residual activity [45] 100%
